Measured values reported in the supplement of paper PMC10307832.

Key:
Experiment in all cases: relative viability (nuclei count vs DMSO), 5 days (fraction); higher = more cells survive
[1] = compound: CC1=CC(=CC=C1)NC2=NC(=CS2)C3=CC=NC=C3 + C[C@@H](Oc1cc(-c2cnn(C3CCNCC3)c2)cnc1N)c1c(Cl)ccc(F)c1Cl [Crizotinib] (partner 1 µM)
In short: (§1)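 Lung cancer cell lines in 1536-well plates were dosed by pin tool the day after seeding, either with one drug alone or with a fixed anchor-drug dose plus five library-drug doses (not always all listed) in √10 steps. After 5 days, cells were fixed and their nuclei stained in one step (final 0.05% Triton X-100, 1% formaldehyde, 1 ug/ml Hoechst), then counted on 4× images. Relative viability is the nuclei count in treated wells divided by that in vehicle wells. Values are medians of duplicate plates.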

[2] = compound: CC1=CC(=CC=C1)NC2=NC(=CS2)C3=CC=NC=C3 + C[C@]1(O)C[C@@H](c2nc(-c3ccc4ccc(-c5ccccc5)nc4c3)c3c(N)nccn32)C1 [Linsitinib] (partner 1 µM)
In short: as §1

[3] = compound: CC1=CC(=CC=C1)NC2=NC(=CS2)C3=CC=NC=C3 + COc1cc2c(Oc3ccc(NC(=O)C4(C(=O)Nc5ccc(F)cc5)CC4)cc3F)ccnc2cc1OCCCN1CCOCC1 [Foretinib] (partner 0.25 µM)
In short: as §1

Masitinib + Pictilisib = compound: Cc1ccc(NC(=O)c2ccc(CN3CCN(C)CC3)cc2)cc1Nc1nc(-c2cccnc2)cs1 [Masitinib] + CS(=O)(=O)N1CCN(Cc2cc3nc(-c4cccc5[nH]ncc45)nc(N4CCOCC4)c3s2)CC1 [Pictilisib] (partner 1 µM)
In short: as §1

Cell Line	relative viability ([1]; first compound 0.08 µM)	relative viability ([1]; first compound 0.253 µM)	relative viability ([1]; first compound 0.8 µM)	relative viability ([1]; first compound 2.53 µM)	relative viability ([1]; first compound 8 µM)	relative viability ([2]; first compound 0.08 µM)	relative viability ([2]; first compound 0.253 µM)	relative viability ([2]; first compound 0.8 µM)	relative viability ([2]; first compound 2.53 µM)	relative viability ([2]; first compound 8 µM)	relative viability ([3]; first compound 0.253 µM)	relative viability ([3]; first compound 0.8 µM)	relative viability ([3]; first compound 2.53 µM)	relative viability ([3]; first compound 8 µM)	relative viability (Masitinib + Pictilisib; first compound 0.01 µM)	relative viability (Masitinib + Pictilisib; first compound 0.03162 µM)	relative viability (Masitinib + Pictilisib; first compound 0.1 µM)	relative viability (Masitinib + Pictilisib; first compound 0.3162 µM)	relative viability (Masitinib + Pictilisib; first compound 1 µM)	relative viability ([3]; first compound 0.08 µM)
NCI-H727	0.621	0.737	0.922	0.759	0.575	0.283	0.283	0.268	0.199	0.343	0.837	0.785	0.79	0.71	0.506	0.416	0.443	0.317	0.317	
RERF-LC-KJ	0.741	0.705	0.556	0.59	0.512	0.78	0.872	0.684	0.683	0.563	0.874	0.718	0.78	0.762	0.496	0.514	0.617	0.404	0.457	0.847
Calu-6	0.698	0.639	0.619	0.634	0.727	0.765	0.934	0.871	0.879	0.756	0.795	0.727	0.768	0.768	0.905	0.857	1.06	0.988	0.861	0.712
LC-2-ad	0.45	0.419	0.394	0.397	0.396	0.764	0.821	0.684	0.788	0.739		0.901	0.909	1.07	0.435	0.46	0.467	0.409	0.412	0.836
CAL-12T	0.547	0.634	0.612	0.62	0.604	0.766	0.801	0.747	0.847	0.847	1.08	1.04	1.09	0.899	0.519	0.377	0.694	0.392	0.293	1.2
SK-LU-1	0.751	1	0.636	0.912	0.938	1.03	1.1	0.815	1.17	1	0.886		0.781	0.76	0.483	0.53	0.643	0.549	0.518	0.767
NCI-H1651	0.854	0.869	0.897	0.851	0.897	0.958	0.955	0.919	0.999	0.926	0.736	0.72	0.917	0.862	0.529	0.585	0.543	0.622	0.505	0.825
BEN	1.11	0.948	0.879	0.779	0.76	0.881	0.925	0.89	0.777	0.813	0.435	0.624	0.392	0.629	0.638	0.51	0.71	0.555	0.627	0.615
EMC-BAC-2	0.642	0.7	0.717	0.643	0.729	0.712	0.817	0.781	0.802	0.718	0.993	1	0.948	0.879	0.553	0.518	0.58	0.552	0.503	0.888
LXF-289	0.775	0.785	0.827	0.836	0.751	0.971	0.933	0.955	0.986	0.85	1.03	0.994	0.938	0.823	0.729	0.836	0.792	0.846	0.761	0.926
ABC-1	0.851	0.893	1.03	0.934	1.19	0.758	0.708	0.584	0.642	0.709	1.14	1.18	0.884	1.03	0.686	0.623	0.977	0.652	0.61	1.08
NCI-H358	0.509	0.576	0.562	0.542	0.512	0.733	0.798	0.639	0.8	0.666	0.797	0.671	0.934	0.566	0.328	0.319	0.34	0.394	0.296	0.699
NCI-H1355	1.02	0.781	0.705	0.701	0.61	0.713	0.584	0.579	0.673	0.568	0.749	0.663	0.685	0.71	0.454	0.264	0.418	0.331	0.441	0.882
EBC-1	0.176	0.218	0.198	0.17	0.163	0.621	0.698	0.757	0.686	0.786	0.103	0.0911	0.117	0.114	0.348	0.357	0.427	0.309	0.413	0.0887
NCI-H2405	0.684	0.774	0.615	0.874	0.808	0.777	0.927	0.799	0.999	0.926	0.942	0.786	0.99	1	0.434	0.382	0.445	0.302	0.332	0.914
NCI-H2009	0.917	0.97	1.01	0.939	0.89	1.15	1.16	1.1	1.18	1.15	1.11	1.14	1.22	1.18	0.641	0.87	0.756	0.923	0.793	1.2
